Data published in patent publication US20140349989A1, “COMPOUNDS AND THERAPEUTIC USES THEREOF” (Alzheimer's Institute of America, priority 2011, published 2014).
Where two headings read alike, the source gives them in different places.

Test: Cytotoxicity Assay (HCT116, CellTiter-Glo)
Assay type: cell-based
Conditions: human
Procedure: HCT116 cells were seeded in 96 well plates (Greiner Bio-One, Monroe, N.C.) and allowed to settle overnight. Test compound dissolved in dimethyl sulfoxide (DMSO) was added and drug incubation proceeded for 72 hours. When applicable, a 1000× solution of nicotinic acid (NA; Sigma-Aldrich, St. Louis, Mo.) dissolved in water was generated, and 1×NA (10 μM final concentration) was added at the same time as the test compound. After 72 hour, 50 μL of CellTiter-Glo Luminescent Cell Viability Assay reagent (Promega Corporation, Madison, Wis.) was added to cells in 200 μL of cellular media. After a proscribed incubation period, luminescence was measured using a TopCount NXT plate reader (PerkinElmer, Waltham, Mass.).

[1] = HCT116 cells, 72 hours drug incubation, CellTiter-Glo luminescence, read-out: HCT116 cell cytotoxicity IC50

Row | Structure (SMILES) | IC50 at 72 h [1] [nM] | IC50 at 72 h (HCT116 cell cytotoxicity IC50) [nM]
1 | O=C(/C=C/c1ccc(-n2nc(C(=O)N3CCC(N4CCOCC4)CC3)c3ccccc32)cc1)NCc1cccnc1 [Compound 171, (2E)-3-[4-(3-{[4-(Morpholin-4-yl)piperidin-1-yl]carbonyl}-1H-indazol-1-yl)phenyl]-N-(pyridin-3-ylmethyl)prop-2-enamide] | < 100 | –
2 | CCOC(=O)c1cn(CCCNC(=O)NCc2cccnc2)c2ccccc12 [Compound 106, Ethyl 1-(3-{[(pyridin-3-ylmethyl)carbamoyl]ami-no}propyl)-1H-indole-3-carboxylate] | ≥ 100 | –
3 | O=C(NCc1cccnc1)Nc1ccc(N2CC3(CCN(C(=O)OCc4ccccc4)CC3)c3ccccc32)cc1 [Compound 66, Benzyl 1-(4-{[(pyridin-3-ylmethyl)carbamoyl]ami-no}phenyl)-1,2-dihydro-1′H-spiro[indole-3,4′-piperidine]-1′-carboxyylate] | < 100 | –
4 | O=C(NCc1cccnc1)Nc1ccc(-n2cc(C3CCN(CCF)CC3)c3ccccc32)cc1 [Compound 99, 1-(4-{3-[1-(2-Fluoroethyl)piperidin-4-yl]-1H-indol-1-yl}phenyl)-3-(pyridin-3-ylmethyl)urea] | < 100 | –
5 | Cc1c(Cc2ccccc2)c(C(=O)N2CCC(N3CCCCC3)CC2)nn1-c1ccc(NC(=O)NCc2cccnc2)cc1 [Compound 46, 1-{4-[4-Benzyl-3-(1,4′-bipiperidin-1′-ylcarbonyl)-5-methyl-1H-pyrazol-1-yl]phenyl}-3-(pyridin-3-ylmethyl)urea] | < 100 | –
6 | Cc1c(-c2ccccc2)c(C(=O)NCCCN2CCCCC2)nn1-c1ccc(NC(=O)NCc2cccnc2)cc1 [Compound 50, 5-Methyl-4-phenyl-N-[3-(piperidin-1-yl)propyl]-1-(4-{[(pyridin-3-ylmethyl)carbamoyl]ami-no}phenyl)-1H-pyrazole-3-carboxamide] | – | < 100
7 | CN(C)C1CN(C(=O)c2nn(-c3ccc(/C=C/C(=O)NCc4cccnc4)cc3)c3ccccc23)C1 [Compound 165, (2E)-3-[4-(3-{[3-(Dimethylamino)azetidin-1-yl]carbonyl}-1H-indazol-1-yl)phenyl]-N-(pyridin-3-ylmethyl)prop-2-enamide] | < 100 | –
8 | O=C(NCc1cccnc1)Nc1ccc(-n2cc(C(=O)N3CCN(C4CCCCC4)CC3)c3ccccc32)c(Cl)c1 [Compound 92, 1-(3-Chloro-4-{3-[(4-cyclohexyl-piperazin-1-yl)carbonyl]-1H-indol-1-yl}phenyl)-3-(pyridin-3-ylmethyl)urea] | < 100 | –
9 | O=C(NCc1cccnc1)Nc1ccc(-n2cc(C3CCN(CCO)CC3)c3ccccc32)cc1 [Compound 129, 1-(4-{3-[1-(2-Hydroxy-ethyl)piperidin-4-yl]-1H-indol-1-yl}phenyl)-3-(pyridin-3-ylmethyl)urea] | – | ≥ 100
10 | O=C(NCCCCCn1cc(C(=O)N2CCC(N3CCC(F)(F)CC3)CC2)c2ccccc21)NCc1cccnc1 [Compound 32, 1-(5-{3-[(4,4-Difluoro-1,4′-bipiperidin-1′-yl)carbonyl]-1H-indol-1-yl}pentyl)-3-(pyridin-3-ylmethyl)urea] | < 100 | –
11 | O=C(NCCCCC(=O)c1cn(C2CCN(CCF)CC2)c2ccccc12)NCc1cccnc1 [Compound 39] | < 100 | –
12 | O=C(NCc1cccnc1)Nc1ccc(-n2cc(C3CCN(CC(F)F)CC3)c3ccccc32)cc1 [Compound 40, 1-(4-{3-[1-(2,2-Difluoroethyl)piperidin-4-yl]-1H-indol-1-yl}phenyl)-3-(pyridin-3-ylmethyl)urea] | < 100 | –
13 | O=C(NCc1cncs1)Nc1ccc(-n2cc(CCN3CCOCC3)c3ccccc32)cc1 [Compound 63, 1-(4-{3-[2-(Morpholin-4-yl)ethyl]-1H-indol-1-yl}phenyl)-3-(1,3-thiazol-5-ylmethyl) urea] | – | ≥ 100
14 | CCOC(=O)c1cn(CCCCCNC(=O)NCc2cccnc2)c2ccccc12 [Compound 65, Ethyl 1-(5-{[(pyridin-3-ylmethyl)carbamoyl]amino}pentyl)-1H-indole-3-carboxylate] | < 100 | –
15 | CCN1CCN(C(=O)c2cn(-c3ccc(NC(=O)NCc4cccnc4)cc3Cl)c3ccccc23)CC1 [Compound 95, 1-(3-Chloro-4-{3-[(4-ethylpiperazin-1-yl)carbonyl]-1H-indol-1-yl}phenyl)-3-(pyridin-3-ylmethyl)urea] | < 100 | –
16 | Cc1c(C(=O)N2CCC(O)CC2)c2ccccc2n1-c1ccc(NC(=O)NCc2cccnc2)cc1 [Compound 108, 1-(4-{3-[(4-Hydroxypiperidin-1-yl)carbonyl]-2-methyl-1H-indol-1-yl}phenyl)-3-(pyridin-3-yl-methyl)urea] | < 100 | –
17 | O=C(NCc1cccnc1)Nc1ccc(-n2cc(C3CCN(C4COC4)CC3)c3ccccc32)cc1 [Compound 105, 1-(4-{3-[1-(Oxetan-3-yl)piperidin-4-yl]-1H-indol-1-yl}phenyl)-3-(pyridin-3-ylmethyl)urea] | < 100 | –

Row | Structure (SMILES) | IC50 at 72 h [1] [nM] | IC50 at 72 h (HCT116 cell cytotoxicity IC50) [nM]
18 | CC(C)(C)OC(=O)N1CCC(n2cc(C#CCCCNC(=O)NCc3cccnc3)c3ccccc32)CC1 [Compound 41, tert-Butyl 4-[3-(5-{[(pyridin-3-ylmethyl)carbamoyl]ami-no}pent-1-yn-1-yl)-1H-indol-1-yl]piperidine-1-carboxylate] | – | ≥ 100
19 | O=C(/C=C/c1ccc(-n2nc(C(=O)N3CCC(N4CCCC4)CC3)c3ccccc32)cc1)NCc1cccnc1 [Compound 168, (2E)-N-(Pyridin-3-ylmethyl)-3-[4-(3-{[4-(pyrrolidin-1-yl)piperidin-1-yl]carbonyl}-1H-indazol-1-yl)phenyl]prop-2-enamide] | < 100 | –
20 | Cc1c(C(=O)N2CCN(C3CCCCC3)CC2)c2ccccc2n1-c1ccc(NC(=O)NCc2cccnc2)cc1 [Compound 104, 1-(4-{3-[(4-Cyclohexyl-piperazin-1-yl)carbonyl]-2-methyl-1H-indol-1-yl}phenyl)-3-(pyridin-3-ylmethyl)urea] | < 100 | –
21 | O=C(NCc1cccnc1)Nc1ccc(-n2cc(C3CCN(CC(F)(F)F)CC3)c3ccccc32)cc1 [Compound 82, 1-(Pyridin-3-ylmethyl)-3-(4-{3-[1-(2,2,2-trifluoroethyl)piperidin-4-yl]-1H-indol-1-yl}phenyl)urea] | – | < 100
22 | O=C(NCc1cccnc1)Nc1ccc(-n2cc(-c3nccn3CCC3CCNCC3)c3ccccc32)cc1 [Compound 60, 1-[4-(3-{1-[2-(Piperidin-4-yl)ethyl]-1H-imidazol-2-yl}-1H-indol-1-yl)phenyl]-3-(pyridin-3-ylmethyl)urea] | ≥ 100 | –
23 | CC(=O)N1CCC(n2cc(C(=O)CCCCNC(=O)NCc3cccnc3)c3ccccc32)CC1 [Compound 58, 1-{5-[1-(1-Acetylpiperidin-4-yl)-1H-indol-3-yl]-5-oxo-pentyl}-3-(pyridin-3-ylmethyl)urea] | ≥ 100 | –
24 | CN1CCN(C2CCN(C(=O)c3cn(CCCNC(=O)NCc4cccnc4)c4ccccc34)CC2)CC1 [Compound 125, 1-[3-(3-{[4-(4-Methylpiperazin-1-yl)piperidin-1-yl]carbonyl}-1H-indol-1-yl)propyl]-3-(pyridin-3-ylmethyl)urea] | < 100 | –
25 | O=C(NCCCCCCC1CNc2ccccc21)NCc1cccnc1 (stereo not drawn) [Compound 97, 1-[6-(2,3-Dihydro-1H-indol-3-yl)hexyl]-3-(pyridin-3-ylmethyl)urea] | < 100 | –
26 | CN1CCC(c2cn(-c3ccc(NC(=O)NCc4cccnc4)cc3)c3ccccc23)CC1 [Compound 111, 1-{4-[3-(1-Methylpiperidin-4-yl)-1H-indol-1-yl]phenyl}-3-(pyridin-3-ylmethyl)urea] | < 100 | –
27 | CN(c1nn(-c2ccc(NC(=O)NCc3cccnc3)cc2)c2ccccc12)C1CCNC1 (stereo not drawn) [Compound 76, 1-(4-{3-[Methyl (pyrrolidin-3-yl)amino]-1H-indazol-1-yl}phenyl)-3-(pyridin-3-ylmethyl)urea] | < 100 | –
28 | O=C(NCc1cccnc1)Nc1ccc2c(c1)c(C(=O)NCCCN1CCCCC1)cn2Cc1ccccc1 [Compound 96, 1-Benzyl-N-[3-(piperidin-1-yl)propyl]-5-{[(pyridin-3-yl-methyl)carbamoyl]amino}-1H-indole-3-carboxamide] | ≥ 100 | –
29 | CC(C)(C)OC(=O)N1CCC(CCn2ccnc2-c2cn(-c3ccc(NC(=O)NCc4cccnc4)cc3)c3ccccc23)CC1 [Compound 87, tert-Butyl 4-(2-{2-[1-(4-{[(pyridin-3-yl-methyl)carbamoyl]amino}phenyl)-1H-indol-3-yl]-1H-imidazol-1-yl}ethyl)piperidine-1-carboxylate] | < 100 | –
30 | O=C(/C=C/c1ccc(-n2cc(CCN3CCOCC3)c3ccccc32)nc1)NCc1cccnc1 [Compound 179, (2E)-3-(6-{3-[2-(Morpholin-4-yl)ethyl]-1H-indol-1-yl}pyridin-3-yl)-N-(pyridin-3-ylmethyl)prop-2-enamide] | < 100 | –
31 | O=C(NCc1cccnc1)Nc1ccc(-n2cc(-c3nccn3CCN3CCOCC3)c3ccccc32)cc1 [Compound 102, 1-[4-(3-{1-[2-(Morpholin-4-yl)ethyl]-1H-imidazol-2-yl}-1H-indol-1-yl)phenyl]-3-(pyridin-3-ylmethyl)urea] | < 100 | –
32 | O=C(NCc1cccnc1)Nc1ccc(-n2nc(N3CCC(CN4CCOCC4)CC3)c3ccccc32)cc1 [Compound 62, 1-(4-{3-[4-(Morpholin-4-ylmethyl)piperidin-1-yl]-1H-indazol-1-yl}phenyl)-3-(pyridin-3-ylmethyl)urea] | – | < 100
33 | O=C(/C=C/c1ccc(-n2nc(C(=O)N3CCN(C4CCC4)CC3)c3ccccc32)cc1)NCc1cccnc1 [Compound 167, (2E)-3-(4-{3-[(4-Cyclobutylpiperazin-1-yl)carbonyl]-1H-indazol-1-yl}phenyl)-N-(pyridin-3-ylmethyl)prop-2-enamide] | < 100 | –
